Experimental data from patent US20230017539A1, “TRI-HETEROCYCLIC COMPOUND AS JAK INHIBITOR, AND USE THEREOF” (CHIA TAI TIANQING PHARMACEUTICAL GROUP CO., LTD., priority 2019, published 2023).

Legend:
JAK1(h) = biological target: T1, JAK1(h) (Homo sapiens, UniProt P23458); experiment: In vitro activity assay of JAK1 kinase (radiometric, [γ-33P]-ATP); type: biochemical; conditions: recombinant human JAK1, 40 min at room temperature
T1 construct: purchased Eurofins, UK
Protocol: (§1) Recombinant human JAK1, JAK2, JAK3 and Tyk2 […], and main instruments and reagents were all provided by Eurofins, UK.
(§2) Dilution of JAK2, JAK3 and TYK2: 20 mM 3-(N-morpholino)propanesulfonic acid (MOPS), 1 mM EDTA, 0.01% Brij-35.5% glycerol, 0.1% β-mercaptoethanol, and 1 mg/mL BSA; dilution of JAK1: 20 mM TRIS, 0.2 mM EDTA, 0.1% β-mercaptoethanol, and 0.01% Brij-35.5% glycerol. All compounds were prepared as 100% DMSO solutions, and the concentration was brought to 50 times the final assay concentration. A test compound was diluted with a 3-fold gradient, with a total of 9 final concentrations ranging from 10 μM to […]. The DMSO content in the assay reaction was 2%. The working stock solution of the compound was added into the assay wells as a first component of the reaction, and the remaining components were then added according to the protocol detailed for the assay below.
JAK1(h) was incubated with 20 mM Tris/HC pH 7.5, 0.2 mM EDTA, 500 μM MGEEPLYWSFPAKKK (SEQ ID NO: 1), 10 mM magnesium acetate and [γ-^33P]-ATP (the activity and concentration were tailored as required). The reaction was started by adding a Mg/ATP mixture, and terminated by adding 0.5% phosphoric acid after 40 min of incubation at room temperature. 10 μL of the reactant was then dotted on a P30 filter pad, washed three times with 0.425% phosphoric acid and once with methanol within 4 minutes, and dried, and scintillation counting was performed.
(§3) The IC50 results were obtained by analysis using XLFITS (formula 205) of IDBS company and detailed in Table 1.

JAK2(h) = biological target: T2, JAK2(h) (Homo sapiens, UniProt O60674); experiment: In vitro activity assay of JAK2 kinase (radiometric, [γ-33P]-ATP); type: biochemical; conditions: recombinant human JAK2, 40 min at room temperature
T2 construct: purchased Eurofins, UK
Protocol: as §1, §2
JAK2(h) was incubated with 8 mM MOPS pH 7.0, 0.2 mM EDTA, 100 μM […] (SEQ ID NO: 2), 10 mM magnesium acetate and [γ-^33P]-ATP (the activity and concentration were tailored as required). The reaction was started by adding a Mg/ATP mixture, and terminated by adding 0.5% phosphoric acid after 40 min of incubation at room temperature. 10 μL of the reactant was then dotted on a P30 filter pad, washed three times with 0.425% phosphoric acid and once with methanol within 4 minutes, and dried, and scintillation counting was performed.
as §3

JAK3(h) = biological target: T3, JAK3(h) (Homo sapiens, UniProt P52333); experiment: In vitro activity assay of JAK3 kinase (radiometric, [γ-33P]-ATP); type: biochemical; conditions: recombinant human JAK3, 40 min at room temperature
T3 construct: purchased Eurofins, UK
T3 sequence (P52333 1-1124): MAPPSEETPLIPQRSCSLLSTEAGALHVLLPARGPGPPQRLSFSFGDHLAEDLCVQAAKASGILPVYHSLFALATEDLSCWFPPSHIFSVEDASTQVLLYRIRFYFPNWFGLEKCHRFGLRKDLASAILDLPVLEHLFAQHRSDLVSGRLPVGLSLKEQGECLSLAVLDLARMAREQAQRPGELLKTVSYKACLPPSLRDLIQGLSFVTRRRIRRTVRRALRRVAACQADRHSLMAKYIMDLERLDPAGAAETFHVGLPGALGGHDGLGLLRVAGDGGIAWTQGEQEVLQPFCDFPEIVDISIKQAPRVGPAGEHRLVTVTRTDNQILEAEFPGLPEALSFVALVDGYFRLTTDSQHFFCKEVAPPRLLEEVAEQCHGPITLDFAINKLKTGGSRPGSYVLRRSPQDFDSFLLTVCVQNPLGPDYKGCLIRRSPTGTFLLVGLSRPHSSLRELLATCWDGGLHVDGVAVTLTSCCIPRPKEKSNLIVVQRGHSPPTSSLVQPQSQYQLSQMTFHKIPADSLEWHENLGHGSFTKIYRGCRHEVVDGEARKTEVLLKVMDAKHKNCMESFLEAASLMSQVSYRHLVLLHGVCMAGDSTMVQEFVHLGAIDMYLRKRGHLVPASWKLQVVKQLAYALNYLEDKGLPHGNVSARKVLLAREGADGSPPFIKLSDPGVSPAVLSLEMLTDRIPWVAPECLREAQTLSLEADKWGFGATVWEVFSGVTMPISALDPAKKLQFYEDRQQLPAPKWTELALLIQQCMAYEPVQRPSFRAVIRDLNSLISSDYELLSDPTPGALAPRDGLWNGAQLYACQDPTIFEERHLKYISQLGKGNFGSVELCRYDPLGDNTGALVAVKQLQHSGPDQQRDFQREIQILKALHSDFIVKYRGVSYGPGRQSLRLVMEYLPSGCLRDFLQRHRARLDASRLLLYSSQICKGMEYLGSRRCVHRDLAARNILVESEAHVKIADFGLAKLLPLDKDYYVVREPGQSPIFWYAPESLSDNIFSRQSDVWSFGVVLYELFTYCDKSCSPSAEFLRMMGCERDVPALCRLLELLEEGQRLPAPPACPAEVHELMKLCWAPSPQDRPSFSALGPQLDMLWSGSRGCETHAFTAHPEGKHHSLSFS
Protocol: as §1, §2
JAK3(h) was incubated with 8 mM MOPS pH 7.0, 0.2 mM EDTA, 500 μM GGEEEEYFELVKKKK (SEQ ID NO: 3), 10 mM magnesium acetate and [γ-^33P]-ATP (the activity and concentration were tailored as required). The reaction was started by adding a Mg/ATP mixture, and terminated by adding 0.5% phosphoric acid after 40 min of incubation at room temperature. 10 μL of the reactant was then dotted on a P30 filter pad, washed three times with 0.425% phosphoric acid and once with methanol within 4 minutes, and dried, and scintillation counting was performed.
as §3

TYK2(h) = biological target: T4, TYK2(h) (Homo sapiens, UniProt P29597); experiment: In vitro activity assay of TYK2 kinase (radiometric, [γ-33P]-ATP); type: biochemical; conditions: recombinant human Tyk2, 40 min at room temperature
T4 construct: purchased Eurofins, UK
Protocol: as §1, §2
TYK2(h) was incubated with 8 mM MOPS pH 7.0, 0.2 mM EDTA, 250 μM GGMEDIYFEFMGGKKK (SEQ ID NO:4), 10 mM magnesium acetate and [γ-^33P]-ATP (the activity and concentration were tailored as required). The reaction was started by adding a Mg/ATP mixture, and terminated by adding 0.5% phosphoric acid after 40 min of incubation at room temperature. 10 μL of the reactant was then dotted on a P30 filter pad, washed three times with 0.425% phosphoric acid and once with methanol within 4 minutes, and dried, and scintillation counting was performed.
as §3

[1] = Pharmacokinetic (PK) experiment in rats; type: in vivo; conditions: Sprague-Dawley (SD), rat, plasma, po, male SD rats; for AUC(0-inf) / Cmax / half-life: fasted, tail vein injection 1 mg/kg and gavage 5 mg/kg, route not given; for AUC(0-inf): read-out: AUC0-inf (area under plasma concentration-time curve from time 0 extrapolated to infinite time); for Cmax: read-out: Cmax (peak concentration); for half-life: read-out: T1/2 (half-life) (converted); for bioavailability: gavage 5 mg/kg vs tail vein injection 1 mg/kg
Protocol: A test compound was dissolved [5% DMSO, 95% (12% SBE-β-CD)] to give a clear solution, which was administered into male rats (SD) (overnight fasting, 7-8 weeks old) by tail vein injection and by gavage, respectively. After administration of the test compound, blood was collected from the mandibular vein and centrifuged to obtain plasma at 0.117, 0.333, 1, 2, 4, 7 and 24 h in the tail vein injection group (1 mg/kg), and at 0.25, 0.5, 1, 2, 4, 8 and 24 h in the gavage group (5 mg/kg). The plasma concentration was measured using LC-MS/MS method, and the relevant pharmacokinetic parameters were calculated using WinNonlin™ Version 6.3 pharmacokinetic software with non-compartmental model linear logarithmic trapezoidal method.

[2] = system: adjuvant-induced arthritis (AIA); experiment: In vivo efficacy study of adjuvant-induced arthritis (AIA) in rats; design: species or system female Lewis rats; conditions: for Inhibition rate of area under clinical score curve, AUC (%): two weeks, rat AIA
Protocol: Experimental procedures: the compounds of the present application were tested for their therapeutic effect on arthritis using a rat adjuvant arthritis model. Female Lewis rats weighing 160-180 g were anesthetized with isoflurane and injected with 0.1 mL of Mycobacterium tuberculosis suspension subcutaneously in the left hind paw. 13 days after the modeling, the rats were divided into groups and given corresponding test compounds. For example, the female Lewis rats were orally administered different doses (see Table 3-2 for specific doses) of a solution of test compound 1A in a mixed solvent [5% DMSO, 95% (12% SBE-β-CD)] twice a day (10 test animals in each dose group). During two consecutive weeks of administration, the states of the rats were observed, and the foot volume swellings were recorded and scored.

[3] = system: collagen-induced arthritis (CIA); experiment: In vivo efficacy study of collagen-induced arthritis (CIA) in rats; design: species or system Lewis rats; conditions: for Clinical score (on day 14 of administration) Mean ± SEM / Foot volume (mL, on day 14 of administration) Mean ± SEM: rat CIA
Protocol: [table] The compounds of the present application were tested for their therapeutic effect on arthritis using a rat collagen-induced arthritis model. Lewis rats were immunized. The day of the first immunization was recorded as day 0, and the subsequent days were recorded in order. The Lewis rats were anesthetized with isoflurane and injected with 50 μL of prepared collagen emulsion (containing 200 μg of CII) subcutaneously in the tail (2-3 cm away from the base of the tail). On day 21, the same volume of the collagen emulsion was injected in the tail in the same manner. Rats in the normal group were not immunized. On day 27 of the modeling, the rats were divided into groups and administered corresponding test compounds. For example, the female Lewis rats were orally administered different doses (see Table 4-1 for specific doses) of a solution of test compound 4 in a mixed solvent [0.5% HPMC E5/0.5% PVP K30/0.2% SLS in water] twice a day (8 test animals in each dose group). During 14 consecutive days of administration, the states of the rats were observed, and the foot volume swellings were recorded and scored.

T1 sequence (P23458 whole entry): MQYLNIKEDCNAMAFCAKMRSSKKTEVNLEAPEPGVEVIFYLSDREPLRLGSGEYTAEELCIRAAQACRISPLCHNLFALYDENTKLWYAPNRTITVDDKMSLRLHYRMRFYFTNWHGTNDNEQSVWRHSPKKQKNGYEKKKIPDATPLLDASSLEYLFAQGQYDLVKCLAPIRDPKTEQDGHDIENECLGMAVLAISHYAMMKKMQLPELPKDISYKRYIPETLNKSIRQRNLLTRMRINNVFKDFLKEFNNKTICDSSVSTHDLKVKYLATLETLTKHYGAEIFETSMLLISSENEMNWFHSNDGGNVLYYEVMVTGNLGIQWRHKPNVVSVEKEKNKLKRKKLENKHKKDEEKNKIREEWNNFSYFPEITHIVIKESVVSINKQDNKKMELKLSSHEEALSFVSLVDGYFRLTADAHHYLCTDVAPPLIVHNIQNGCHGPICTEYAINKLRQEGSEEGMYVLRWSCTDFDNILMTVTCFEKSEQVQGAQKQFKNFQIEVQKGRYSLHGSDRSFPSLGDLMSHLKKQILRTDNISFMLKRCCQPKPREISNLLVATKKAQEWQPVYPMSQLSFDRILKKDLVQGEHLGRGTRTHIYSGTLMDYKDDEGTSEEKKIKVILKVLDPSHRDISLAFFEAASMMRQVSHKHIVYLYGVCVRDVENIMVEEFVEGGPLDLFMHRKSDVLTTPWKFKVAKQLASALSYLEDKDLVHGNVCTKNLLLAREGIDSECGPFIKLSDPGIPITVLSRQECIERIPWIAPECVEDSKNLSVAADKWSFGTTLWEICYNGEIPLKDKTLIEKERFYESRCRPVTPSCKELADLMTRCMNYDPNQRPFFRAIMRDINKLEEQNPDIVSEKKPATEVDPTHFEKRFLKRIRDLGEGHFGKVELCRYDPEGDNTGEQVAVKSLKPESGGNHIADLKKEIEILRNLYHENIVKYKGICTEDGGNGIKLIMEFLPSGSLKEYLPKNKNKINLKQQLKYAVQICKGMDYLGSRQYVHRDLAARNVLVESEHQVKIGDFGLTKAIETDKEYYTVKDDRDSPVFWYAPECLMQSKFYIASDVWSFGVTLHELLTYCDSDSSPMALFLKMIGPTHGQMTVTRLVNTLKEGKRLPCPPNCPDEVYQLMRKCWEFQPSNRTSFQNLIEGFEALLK
T4 sequence (P29597 whole entry): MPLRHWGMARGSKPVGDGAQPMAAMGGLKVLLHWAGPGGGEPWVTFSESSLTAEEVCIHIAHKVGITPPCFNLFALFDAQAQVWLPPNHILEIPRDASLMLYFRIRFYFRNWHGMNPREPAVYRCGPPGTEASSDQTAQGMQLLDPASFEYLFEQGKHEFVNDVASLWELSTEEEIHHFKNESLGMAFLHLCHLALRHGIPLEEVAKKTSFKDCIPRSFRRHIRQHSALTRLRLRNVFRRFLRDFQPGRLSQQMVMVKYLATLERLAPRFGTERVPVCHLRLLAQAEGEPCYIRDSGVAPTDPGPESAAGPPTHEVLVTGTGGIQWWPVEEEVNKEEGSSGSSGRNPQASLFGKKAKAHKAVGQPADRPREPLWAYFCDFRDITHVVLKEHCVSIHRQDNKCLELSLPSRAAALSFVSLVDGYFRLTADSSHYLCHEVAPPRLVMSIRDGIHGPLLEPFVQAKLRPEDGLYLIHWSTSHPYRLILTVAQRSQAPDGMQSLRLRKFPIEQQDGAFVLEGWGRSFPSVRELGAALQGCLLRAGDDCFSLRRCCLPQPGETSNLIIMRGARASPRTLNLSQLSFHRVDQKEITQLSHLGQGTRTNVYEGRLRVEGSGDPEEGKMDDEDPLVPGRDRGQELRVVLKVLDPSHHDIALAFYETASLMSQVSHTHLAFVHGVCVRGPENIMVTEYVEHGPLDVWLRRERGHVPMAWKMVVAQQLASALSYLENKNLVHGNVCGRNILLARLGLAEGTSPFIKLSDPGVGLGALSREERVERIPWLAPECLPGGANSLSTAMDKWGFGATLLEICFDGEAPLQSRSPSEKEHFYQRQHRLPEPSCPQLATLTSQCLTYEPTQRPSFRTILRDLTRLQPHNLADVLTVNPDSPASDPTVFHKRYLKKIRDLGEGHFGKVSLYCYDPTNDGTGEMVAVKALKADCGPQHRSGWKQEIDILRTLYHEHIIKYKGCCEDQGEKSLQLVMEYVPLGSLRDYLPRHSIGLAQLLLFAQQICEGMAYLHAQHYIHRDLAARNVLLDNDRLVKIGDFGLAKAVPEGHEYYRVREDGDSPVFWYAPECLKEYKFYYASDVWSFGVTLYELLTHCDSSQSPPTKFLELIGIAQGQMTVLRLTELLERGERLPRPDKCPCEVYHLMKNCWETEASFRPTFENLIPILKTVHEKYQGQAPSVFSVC
T2 sequence (O60674 whole entry): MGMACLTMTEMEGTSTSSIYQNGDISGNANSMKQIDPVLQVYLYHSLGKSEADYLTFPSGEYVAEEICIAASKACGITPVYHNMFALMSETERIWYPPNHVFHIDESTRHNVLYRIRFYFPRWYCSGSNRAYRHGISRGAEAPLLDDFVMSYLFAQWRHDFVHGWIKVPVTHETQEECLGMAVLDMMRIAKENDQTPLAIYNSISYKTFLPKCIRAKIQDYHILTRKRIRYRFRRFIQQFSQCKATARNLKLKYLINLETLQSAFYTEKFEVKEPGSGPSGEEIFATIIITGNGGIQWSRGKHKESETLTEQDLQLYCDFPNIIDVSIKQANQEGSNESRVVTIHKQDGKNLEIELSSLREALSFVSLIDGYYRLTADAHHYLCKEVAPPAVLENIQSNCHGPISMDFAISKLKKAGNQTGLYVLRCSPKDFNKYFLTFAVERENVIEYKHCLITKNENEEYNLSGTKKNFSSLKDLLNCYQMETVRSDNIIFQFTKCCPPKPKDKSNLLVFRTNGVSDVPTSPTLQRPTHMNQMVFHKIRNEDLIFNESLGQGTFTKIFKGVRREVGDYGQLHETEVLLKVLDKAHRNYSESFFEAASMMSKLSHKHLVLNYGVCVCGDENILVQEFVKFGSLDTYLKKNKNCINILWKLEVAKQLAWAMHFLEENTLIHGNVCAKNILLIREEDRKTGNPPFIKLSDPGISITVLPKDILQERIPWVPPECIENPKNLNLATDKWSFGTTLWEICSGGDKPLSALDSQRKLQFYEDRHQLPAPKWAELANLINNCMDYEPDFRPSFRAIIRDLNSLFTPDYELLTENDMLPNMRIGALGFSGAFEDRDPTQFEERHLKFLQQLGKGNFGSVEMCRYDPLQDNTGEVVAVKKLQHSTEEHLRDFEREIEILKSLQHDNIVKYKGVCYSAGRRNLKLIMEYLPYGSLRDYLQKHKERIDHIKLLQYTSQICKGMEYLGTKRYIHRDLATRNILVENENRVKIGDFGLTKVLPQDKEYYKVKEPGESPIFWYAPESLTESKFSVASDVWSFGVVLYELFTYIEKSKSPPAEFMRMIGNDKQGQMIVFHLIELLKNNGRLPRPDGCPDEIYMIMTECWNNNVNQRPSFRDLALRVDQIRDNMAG

SMILES	IC50 (JAK1(h))	IC50 (JAK2(h))	IC50 (JAK3(h))	IC50 (TYK2(h))	further results
N#Cc1cc2n(n1)CC(n1c(C(F)(F)F)nc3cnc4[nH]ccc4c31)CC2 (single isomer, unassigned) [Compound 3A]	3 nM	62 nM	217 nM	57 nM	–
C[C@@H](O)c1nc2cnc3[nH]ccc3c2n1[C@@H]1CCc2cc(C#N)nn2C1 [Compound 5]	9 nM	250 nM	576 nM	231 nM	–
C[C@@H]1C[C@H]2[C@@H]3CCC4=CC(=O)C=C[C@]4(C)[C@@]3(F)[C@@H](O)C[C@]2(C)[C@@]1(O)C(=O)CO [Dexamethasone, reference compound]	–	–	–	–	Clinical score (on day 14 of administration) Mean ± SEM ([3]; 0.1 mg/kg): 0.00 ± 0.00; Foot volume (mL, on day 14 of administration) Mean ± SEM ([3]; 0.1 mg/kg): 1.22 ± 0.042 mL

Continued, in another order:

IC50 (JAK1(h))	IC50 (JAK2(h))	IC50 (JAK3(h))	IC50 (TYK2(h))	SMILES	further results
1.3 nM	27 nM	30.8 nM	35.8 nM	N#Cc1cc2n(n1)CC(n1cnc3cnc4[nH]ccc4c31)CC2 (single isomer, unassigned) [Compound 1A]	AUC(0-inf) [1]: 8.51 µM·h; Cmax [1]: 2.94 µM; half-life [1]: 1.35 h; bioavailability [1]: 41.8%; Inhibition rate of area under clinical score curve, AUC (%) ([2]; 3 mg/kg oral twice a day): 49.8%; Mean arthritis clinical score, peak ([2]; 10 mg/kg group, day 13 (day of grouping, start of dosing)): 5.8; Mean arthritis clinical score at the experimental endpoint ([2]; 10 mg/kg group, day 27): 1.3; Inhibition rate of area under clinical score curve, AUC (%) ([2]; 10 mg/kg oral twice a day): 60.3%; Effect on the downward trend of the weight in animals caused by the disease attack ([2]; 3 and 10 mg/kg groups, significant difference from solvent control from day 20): significant relieving effect on the downward trend of the weight; Effect on increase in arthritis clinical score and foot volume ([2]; 3 and 10 mg/kg oral twice a day, dose-dependent): inhibited the increase in arthritis clinical score and foot volume
< 1 nM	2 nM	25 nM	2 nM	Cc1nc2cnc3[nH]ccc3c2n1C1CCc2cc(C#N)nn2C1 (single isomer, unassigned) [Compound 2A]	–
0.9 nM	7 nM	27.3 nM	50.3 nM	COc1nc2cnc3[nH]ccc3c2n1[C@@H]1CCc2cc(C#N)nn2C1 [Compound 4]	AUC(0-inf) [1]: 67.8 µM·h; Cmax [1]: 10.2 µM; half-life [1]: 3.65 h; bioavailability [1]: 119%; Clinical score (on day 14 of administration) Mean ± SEM ([3]; 1 mg/kg oral BID): 0.38 ± 0.16; Foot volume (mL, on day 14 of administration) Mean ± SEM ([3]; 1 mg/kg oral BID): 1.32 ± 0.04 mL; Body weight recovery ([3]; 3 mg/kg BID, end of administration at day 14): recovers to the level in the normal group; Foot volume (mL, on day 14 of administration) Mean ± SEM ([3]; 3 mg/kg oral BID): 1.28 mL; Degree of the foot volume swelling ([3]; BID at 1 and 3 mg/kg): reduced in a dose-dependent manner; Effect on clinical scores of the arthritic rats ([3]; BID at 1 and 3 mg/kg, significant difference from solvent control): reduces the clinical scores of the arthritic rats in a dose-dependent manner
2.3 nM	70.2 nM	73.8 nM	130 nM	COc1nc2cnc3[nH]ccc3c2n1[C@H]1CCc2cc(C#N)nn2C1 [Compound 6]	–
0.3 nM	53.9 nM	38.4 nM	12.4 nM	C[C@@H](O)c1nc2cnc3[nH]ccc3c2n1[C@H]1CCc2cc(C#N)nn2C1 [Compound 7]	–
